Drawing on patent US6420375B1, “Fused ring compounds, process for producing the same and use thereof” (Takeda Chemical Industries, Ltd., priority 1997, dated 2002), this text covers IC50 for six molecules.

The assay deals with T1, rat steroid C17-20-lyase (Rattus norvegicus, UniProt P11715).
T1 construct: testicular microsomes were prepared by a series of centrifugation; from tissue; host or cells: testicular microsomes from 13-week old male SD rats
T1 sequence (P11715 1-507): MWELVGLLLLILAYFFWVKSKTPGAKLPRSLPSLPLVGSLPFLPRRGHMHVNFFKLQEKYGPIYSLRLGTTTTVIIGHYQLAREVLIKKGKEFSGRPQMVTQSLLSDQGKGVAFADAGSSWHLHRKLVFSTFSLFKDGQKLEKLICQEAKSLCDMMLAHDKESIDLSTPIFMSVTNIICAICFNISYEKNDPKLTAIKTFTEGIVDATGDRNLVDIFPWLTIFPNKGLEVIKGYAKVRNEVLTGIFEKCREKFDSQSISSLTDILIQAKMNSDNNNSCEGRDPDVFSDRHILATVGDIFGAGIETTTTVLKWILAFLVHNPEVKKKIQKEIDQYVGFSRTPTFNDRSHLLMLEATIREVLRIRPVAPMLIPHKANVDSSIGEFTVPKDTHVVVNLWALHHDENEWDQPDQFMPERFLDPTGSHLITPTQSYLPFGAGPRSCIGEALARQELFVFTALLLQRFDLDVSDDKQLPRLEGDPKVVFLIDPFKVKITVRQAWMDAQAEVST
Description: Assay of inhibitory activity on rat steroid C17-20-lyase in vitro. The class given is biochemical. To be noted: testicular microsomes of male SD rats; 10 nM [1,2-3H]-17α-hydroxyprogesterone, NADPH; 7 min at 37° C.; concentration reducing products (testosterone and androstenedione) by 50%. Here is the method:
Assay of inhibitory activity on rat steroid C17-20-lyase in vitro
Inhibitory activity was determined according to the method described in The Prostate, vol.26, 140-150(1995) with some modifications.
Testes excised from 13-week old, male SD rats were homogenized, and testicular microsomes were prepared by a series of centrifugation. The microsome protein (7 μg/10 μl) was added to 10 μl of 100 mM phosphate buffer (pH 7.4) in which 10 nM (final concentration) [1,2-^3H]-17α-hydroxyprogesterone, NADPH, and test compounds were dissolved. The reaction mixture was incubated for 7 min at 37° C., terminated by addition of 40 μl of Ethyl acetate, and briefly centrifuged. The substrate and the products (testosterone and androstenedione) in the upper phase were separated by silica gel thin layer chromatography. Detection of the spots and measurement of the radioactivity were performed by a BAS 2000 Bioimage analyzer. The concentration of the test compounds necessary to reduce the concentration of the products by 50% (The concentration in the control group in which no test compound was added was taken as 100%) was calculated, and shown in Table 1.
`C(=C\c1ccc2ccccc2c1)/Cn1ccnc1` yielded a 50% inhibitory concentration (IC50) of 0.026 µM.
Molecule `C/C(=C\Cn1ccnc1)c1ccc2ccccc2c1` gave a half-inhibitory concentration (IC50) of 0.013 µM. This IC50 lies about 2-fold lower than the previous one.
Then `C/C(=C\c1ccc2ccccc2c1)Cn1ccnc1`, with 0.02 µM; and `C(=C\c1ccc2ccccc2c1)/Cc1cccnc1`, with 0.1 µM; and `C(=C\c1ccc2c(c1)CCCC2)/c1ccncc1`, with 0.19 µM.
Regarding `C/C(=C\Cn1ccnc1)c1ccc2c(c1)CCCC2`, the 50% inhibitory concentration (IC50) turned out to be 0.028 µM. Compared with the last molecule, the IC50 is about 6.8-fold lower.
